Assay results from BindingDB's records for doi:10.1021/jm0304156 (Harvard Medical School, 2003).

Test: Binding affinity against opioid receptor delta 1 using [3H]naltrindole as radioligand in guinea pig brain membranes.

| SMILES | Ki [nM] |
| --- | --- |
| c1cc2c(cc1-c1nnn[nH]1)[C@@]13CCCC[C@H]1[C@@H](C2)N(CC1CCC1)CC3 [3-(1'H-Tetrazol-5'-yl)-N-cyclobutylmethylmorphinan] | > 10000 |
| CN1CC[C@]23CCCC[C@H]2[C@H]1Cc1ccc(-c2nnn[nH]2)cc13 [3-(1'H-Tetrazol-5'-yl)-N-methylmorphinan] | > 10000 |
| Nc1ccc2c(c1)[C@@]13CCCC[C@H]1[C@@H](C2=O)N(CC1CCC1)CC3 [3-Amino-10-keto-N-cyclobutylmethylmorphinan] | 600 |
| NCc1ccc2c(c1)[C@@]13CCCC[C@H]1[C@@H](C2)N(CC1CCC1)CC3 [3-Aminomethyl-N-cyclobutylmethylmorphinan] | 410 |
| CN1CC[C@]23CCCC[C@H]2[C@H]1Cc1ccc(CN)cc13 [3-Aminomethyl-N-methylmorphinan] | 2500 |
| NC(=O)c1ccc2c(c1)[C@@]13CCCC[C@H]1[C@@H](C2=O)N(CC1CCC1)CC3 [3-Carboxamido-10-keto-N-cyclobutylmethylmorphinan] | 50 |
| NC(=O)c1ccc2c(c1)[C@@]13CCCC[C@H]1[C@@H](C2)N(CC1CCC1)CC3 [3-Carboxamido-N-cyclobutylmethylmorphinan] | 4 |
| NC(=O)c1ccc2c(c1)[C@@]13CCCC[C@H]1[C@@H](C2)N(CC1CC1)CC3 [3-Carboxamido-N-cyclopropylmethylmorphinan] | 1 |
| CN1CC[C@]23CCCC[C@H]2[C@H]1Cc1ccc(C(N)=O)cc13 [3-Carboxamido-N-methylmorphinan] | 13 |
| O=C(O)c1ccc2c(c1)[C@@]13CCCC[C@H]1[C@@H](C2=O)N(CC1CCC1)CC3 [3-Carboxyl-10-keto-N-cyclobutylmethyl morphinan] | 800 |
| N#Cc1ccc2c(c1)[C@@]13CCCC[C@H]1[C@@H](C2=O)N(CC1CCC1)CC3 [3-Cyano-10-keto-N-cyclobutylmethylmorphinan] | > 10000 |
| N#Cc1ccc2c(c1)[C@@]13CCCC[C@H]1[C@@H](C2)N(CC1CCC1)CC3 [3-Cyano-N-cyclobutylmethylmorphinan] | 1900 |
| CN1CC[C@]23CCCC[C@H]2[C@H]1Cc1ccc(C#N)cc13 [3-Cyano-N-methylmorphinan] | > 1000 |
| O=C1c2ccc(O)cc2[C@@]23CCCC[C@H]2[C@@H]1N(CCF)CC3 [3-Hydroxy-10-keto-N-(2-fluoroethyl)morphinan] | > 10000 |
| COCCN1CC[C@]23CCCC[C@H]2[C@H]1C(=O)c1ccc(O)cc13 [3-Hydroxy-10-keto-N-(2-methoxyethyl)morphinan] | > 10000 |
| O=C1c2ccc(O)cc2[C@@]23CCCC[C@H]2[C@@H]1N(Cc1ccc2ccccc2c1)CC3 [3-Hydroxy-10-keto-N-(2-naphthylmethyl)morphinan] | > 10000 |
| CC(C)=CCN1CC[C@]23CCCC[C@H]2[C@H]1C(=O)c1ccc(O)cc13 [3-Hydroxy-10-keto-N-(3,3-dimethylallyl)morphinan] | 1100 |
| O=C1c2ccc(O)cc2[C@@]23CCCC[C@H]2[C@@H]1N(C[C@@H]1CCCO1)CC3 [3-Hydroxy-10-keto-N-(tetrahydrofuran-2-yl)methylmorphinan] | 1 |
| O=C1c2ccc(O)cc2[C@@]23CCCC[C@H]2[C@@H]1N(CC1CC1)CC3 [3-Hydroxy-10-keto-N-cyclopropylmethylmorphinan] | 150 |
| CN1CC[C@]23CCCC[C@H]2[C@H]1C(=O)c1ccc(O)cc13 [3-Hydroxy-10-keto-N-methylmorphinan] | 1200 |
| COc1ccc2c(c1)[C@@]13CCCC[C@H]1[C@H](NCC3)C2=O [3-Methoxy normorphinan] | 16 |
| O=C1c2ccc(OCC3CCC3)cc2[C@@]23CCCC[C@H]2[C@@H]1N(CC1CCC1)CC3 [3-O-Cyclobutylmethyl-10-keto-N-cyclobutylmethylmorphinan] | > 10000 |
| C#CCOc1ccc2c(c1)[C@@]13CCCC[C@H]1[C@@H](C2=O)N(CC#C)CC3 [3-O-Propargyl-10-keto-N-propargylmorphinan] | > 10000 |
| O=C1c2ccc(-c3nnn[nH]3)cc2[C@@]23CCCC[C@H]2[C@@H]1N(CC1CCC1)CC3 [3-Tetrazolo-10-keto-N-cyclobutylmethylmorphinan] | 1800 |
| O=C1c2ccc(O)cc2[C@@]23CCCC[C@H]2[C@@H]1NCC3 [3-hydroxy-normorphinan] | > 10000 |
